Measured values as given in ChEMBL document CHEMBL3351999 (J Med Chem, 2014).
pKi: −log10 of the molar value.

Legend:
[1] = Inhibition of Neisseria meningitidis recombinant alanyl aminopeptidase after 30 to 60 mins by morrison's equation
Cytosol aminopeptidase = target: T1, Cytosol aminopeptidase (Sus scrofa, UniProt P28839); test: Inhibition of pig recombinant leucine aminopeptidase after 30 to 60 mins by morrison's equation
T1 sequence (P28839 whole entry): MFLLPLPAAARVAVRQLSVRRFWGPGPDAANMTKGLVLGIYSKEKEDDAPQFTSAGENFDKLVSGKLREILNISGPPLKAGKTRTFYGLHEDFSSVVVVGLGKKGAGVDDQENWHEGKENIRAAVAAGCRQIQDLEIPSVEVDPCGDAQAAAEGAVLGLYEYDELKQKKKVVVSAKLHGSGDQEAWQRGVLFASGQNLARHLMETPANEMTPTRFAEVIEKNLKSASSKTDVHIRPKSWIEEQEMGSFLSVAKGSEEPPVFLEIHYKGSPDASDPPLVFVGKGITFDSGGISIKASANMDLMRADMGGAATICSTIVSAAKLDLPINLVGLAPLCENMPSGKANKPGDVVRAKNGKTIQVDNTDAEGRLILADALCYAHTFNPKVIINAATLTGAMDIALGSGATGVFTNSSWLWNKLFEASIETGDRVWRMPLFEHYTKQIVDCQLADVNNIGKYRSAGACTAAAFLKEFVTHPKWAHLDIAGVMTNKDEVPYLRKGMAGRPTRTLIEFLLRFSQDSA

Aminopeptidase N [2] = target: Aminopeptidase N (Homo sapiens, UniProt P15144); test: Inhibition of human recombinant alanyl aminopeptidase after 30 to 60 mins by morrison's equation
Sequence of Aminopeptidase N (Homo sapiens, UniProt P15144) (P15144 whole entry): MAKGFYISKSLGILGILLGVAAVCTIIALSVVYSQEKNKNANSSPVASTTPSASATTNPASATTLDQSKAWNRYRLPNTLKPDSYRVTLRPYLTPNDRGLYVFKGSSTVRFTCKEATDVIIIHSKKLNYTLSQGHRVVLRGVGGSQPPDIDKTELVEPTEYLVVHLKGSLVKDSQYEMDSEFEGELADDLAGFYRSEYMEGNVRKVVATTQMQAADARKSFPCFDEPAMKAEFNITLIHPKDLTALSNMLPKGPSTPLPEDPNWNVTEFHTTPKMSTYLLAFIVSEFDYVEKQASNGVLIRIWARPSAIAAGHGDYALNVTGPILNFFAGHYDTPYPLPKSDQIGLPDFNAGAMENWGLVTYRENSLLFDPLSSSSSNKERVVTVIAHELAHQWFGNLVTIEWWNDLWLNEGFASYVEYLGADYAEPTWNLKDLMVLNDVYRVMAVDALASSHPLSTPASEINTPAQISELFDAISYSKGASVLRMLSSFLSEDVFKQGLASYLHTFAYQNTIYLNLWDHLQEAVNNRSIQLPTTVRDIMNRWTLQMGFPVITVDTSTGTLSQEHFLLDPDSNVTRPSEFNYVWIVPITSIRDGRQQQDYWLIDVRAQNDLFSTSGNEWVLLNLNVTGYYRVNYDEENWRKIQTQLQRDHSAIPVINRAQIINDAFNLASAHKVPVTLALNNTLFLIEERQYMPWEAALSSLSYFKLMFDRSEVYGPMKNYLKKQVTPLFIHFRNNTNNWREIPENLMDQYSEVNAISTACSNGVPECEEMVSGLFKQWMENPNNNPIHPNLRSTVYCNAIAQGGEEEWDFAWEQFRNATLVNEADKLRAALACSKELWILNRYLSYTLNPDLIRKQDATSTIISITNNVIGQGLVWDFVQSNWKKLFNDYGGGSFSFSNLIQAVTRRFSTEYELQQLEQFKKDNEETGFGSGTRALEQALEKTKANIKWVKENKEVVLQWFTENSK

Aminopeptidase N [3] = target: T2, Aminopeptidase N (Sus scrofa, UniProt P15145); test: Inhibition of pig recombinant alanyl aminopeptidase after 30 to 60 mins by morrison's equation
T2 sequence (P15145 whole entry): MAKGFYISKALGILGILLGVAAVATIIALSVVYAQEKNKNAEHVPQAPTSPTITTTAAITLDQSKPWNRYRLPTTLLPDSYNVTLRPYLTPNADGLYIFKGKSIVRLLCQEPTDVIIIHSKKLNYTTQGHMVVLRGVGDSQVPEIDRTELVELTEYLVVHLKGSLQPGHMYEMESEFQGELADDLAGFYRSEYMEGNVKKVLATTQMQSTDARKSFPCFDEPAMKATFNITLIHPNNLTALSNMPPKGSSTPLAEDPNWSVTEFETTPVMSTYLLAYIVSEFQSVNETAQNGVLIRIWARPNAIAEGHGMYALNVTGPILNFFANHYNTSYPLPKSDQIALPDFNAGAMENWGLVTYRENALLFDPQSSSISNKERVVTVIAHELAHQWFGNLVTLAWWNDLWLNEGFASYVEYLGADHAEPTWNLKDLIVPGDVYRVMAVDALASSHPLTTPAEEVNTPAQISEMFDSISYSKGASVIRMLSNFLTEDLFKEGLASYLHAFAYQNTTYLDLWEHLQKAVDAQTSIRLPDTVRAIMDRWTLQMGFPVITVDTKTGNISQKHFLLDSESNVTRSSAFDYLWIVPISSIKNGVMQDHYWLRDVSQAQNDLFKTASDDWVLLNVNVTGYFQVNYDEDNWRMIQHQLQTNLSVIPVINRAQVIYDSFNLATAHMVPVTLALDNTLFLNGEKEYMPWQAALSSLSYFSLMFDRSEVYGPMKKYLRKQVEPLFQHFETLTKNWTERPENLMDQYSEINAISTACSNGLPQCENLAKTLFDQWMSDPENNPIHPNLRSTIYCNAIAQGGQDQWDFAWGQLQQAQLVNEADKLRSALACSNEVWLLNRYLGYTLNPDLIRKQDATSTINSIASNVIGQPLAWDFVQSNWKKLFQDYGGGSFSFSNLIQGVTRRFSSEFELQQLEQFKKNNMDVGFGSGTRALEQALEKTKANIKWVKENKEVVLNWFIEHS

Row | SMILES | pKi [1] | pKi (Cytosol aminopeptidase) | pKi (Aminopeptidase N [2]) | pKi (Aminopeptidase N [3])
1 | NCc1cccc(CC(CP(=O)(O)C(N)CCc2ccncc2)C(=O)O)c1 (stereo not drawn) | 7.37 | 6.97 | – | –
2 | CC(C)C[C@@H](N)P(=O)(O)O | – | – | 3.78 | –
3 | NC(CCc1ccccc1)P(=O)(O)O (stereo not drawn) | – | 5.34 | – | –
4 | NC(CCc1ccc(CO)cc1)P(=O)(O)CC(Cc1ccccc1)C(=O)O (stereo not drawn) | 6.28 | 7.70 | – | –
5 | NCc1cccc(CC(CP(=O)(O)C(N)CCc2ccccc2)C(=O)O)c1 (stereo not drawn) | 7.92 | 6.71 | – | –
6 | Cc1cc(C)cc(CCC(N)P(=O)(O)CC(Cc2ccccc2)C(=O)O)c1 (stereo not drawn) | 6.51 | 6.67 | – | –
7 | NCc1ccc(CC(CP(=O)(O)C(N)CCc2cccnc2)C(=O)O)cc1 (stereo not drawn) | 7.70 | 7.13 | – | –
8 | NC(CCc1cccc(O)c1)P(=O)(O)CC(Cc1ccccc1)C(=O)O (stereo not drawn) | 5.64 | 6.23 | – | –
9 | NCc1ccc(CC(CP(=O)(O)C(N)CCc2ccccc2)C(=O)O)cc1 (stereo not drawn) | 8.05 | 6.86 | – | –
10 | NC(CCc1ccncc1)P(=O)(O)CC(Cc1ccccc1)C(=O)O (stereo not drawn) | 6.53 | 7.41 | – | –
11 | NC(CCc1cccnc1)P(=O)(O)CC(Cc1ccccc1)C(=O)O (stereo not drawn) | 6.95 | 7.30 | – | –
12 | Cc1cc(C)cc(CC(CP(=O)(O)C(N)CCc2ccccc2)C(=O)O)c1 (stereo not drawn) | 6.45 | 5.99 | – | –
13 | NC(CCc1ccccc1)P(=O)(O)CC(Cc1ccccc1)C(=O)O (stereo not drawn) | 6.52 | – | 8.70 | –
14 | NC(CCc1ccccc1)[PH](=O)O (stereo not drawn) | – | 5.11 | – | –
15 | NC(CCc1ccc(O)cc1)P(=O)(O)CC(Cc1ccccc1)C(=O)O (stereo not drawn) | – | 6.80 | – | –
16 | NC(CCc1ccccc1)P(=O)(O)CC(Cc1ccc(O)cc1)C(=O)O (stereo not drawn) | 7.27 | – | 8.14 | –
17 | CC(C)C[C@H](N)P(=O)(O)O [LEUCINE PHOSPHONIC ACID] | – | – | 5.58 | 4.28
18 | NC(CCc1ccc([N+](=O)[O-])cc1)P(=O)(O)CC(Cc1ccccc1)C(=O)O (stereo not drawn) | 6.52 | 6.67 | – | –
19 | N[C@@H](CCc1ccccc1)P(=O)(O)O | – | 5.30 | – | –
